The source of these data is patent US20110171285A1, “Design of Fibrinogen and Fibrinogen Derived Products with Reduced Bacterial Binding by Using Modified Sequences of Fibrinogen Chains” (priority 2009, published 2011).

Ends that are not written are not given here.

The subject of one experiment is S. aureus USA300 NARSA. The experiment in a line: Adherence of S. aureus USA300 NARSA to Fg coated microtiter plates (crystal violet, OD 590 nm). The format is cell-based. To be noted: 1 μg Fg/well, MRSA strain grown over-night in tryptic soy broth (FIG. 7). How it is done:
Microtiter plates were coated with 1 μg human or salmon Fg per well over-night at 4° C., followed by blocking with 5% bovine serum albumin in TBS-T (Tris-buffered saline with 0.05% Tween-20) in room temperature for about 1 hour. Two bacterial colonies (designated by 1 or 2 in FIG. 7) of S. aureus USA300 NARSA (an MRSA strain) were inoculated in tryptic soy broth at 37° C. over-night, washed and resuspended in PBS and various bacterial dilutions were incubated in the wells for 1 hour at room temperature. After washing in PBS, bound bacteria was fixed using 25% formaldehyde followed by 0.5% crystal violet stain. After PBS washing, 10% acetic acid was added and bound color was measured by crystal violet staining and optical density read at 590 nm in a microtiter plate reader.

The target of a further experiment is ClfA229-545 (Staphylococcus aureus, UniProt Q53653). The conditions noted are these: 1 μg Fg/well, varying concentrations of ClfA229-545, read at 405 nm (FIG. 6).
The target in another experiment is T1, rClfA229-545 (Staphylococcus aureus, UniProt Q53653).
T1 construct: 6xHis; made in house; host or cells: E. coli
T1 sequence (Q53653 229-545): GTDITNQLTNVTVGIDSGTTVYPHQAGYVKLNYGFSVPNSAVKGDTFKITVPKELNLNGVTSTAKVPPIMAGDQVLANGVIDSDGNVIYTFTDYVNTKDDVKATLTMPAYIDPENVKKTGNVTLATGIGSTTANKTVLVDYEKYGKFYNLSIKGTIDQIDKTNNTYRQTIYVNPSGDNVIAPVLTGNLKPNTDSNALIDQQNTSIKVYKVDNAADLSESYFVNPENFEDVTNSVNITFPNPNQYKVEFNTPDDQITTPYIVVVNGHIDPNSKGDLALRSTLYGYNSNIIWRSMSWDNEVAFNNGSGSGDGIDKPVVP
Put plainly: Isothermal titration calorimetry of Fg γ-peptide binding to rClfA229-545. On the technique in general: ITC needs no label: the signal is the heat of the interaction.

Description for rClfA229-545: Peptide 0.6-0.9 mM was injected into a cell with rClfA229-545 in a VP-ITC (MicroCal Inc.). The resulting data was analyzed using Origin 5.0 from MicroCal using a single binding site model.

In the case of human Fg: human fibrinogen, the “binding (adherence) of S. aureus USA300 to coated Fg” value with S. aureus USA300 NARSA is “bound”. For the same substance, the “binding of ClfA N2N3 to coated Fg” value in the experiment with ClfA229-545 is recorded as “dose-dependent binding”.

One may read the Kd as a measure of binding affinity in units of concentration. Low readings indicate tighter binding, high ones weaker binding. As for GQQHHLGGAKQAGDV [human 15-mer peptide], binding at rClfA229-545 was characterised by a dissociation constant (Kd) of 40 µM. Also, on rClfA229-545 (ITC, in solution (FIGS. 3A and 3B)), the “binding to ClfA229-545” value is on record as “binds to ClfA”.

The substance “GEGQQHHLGGAKQAGDV [human 17-mer peptide]” showed a Kd at rClfA229-545 of 23 µM.
